According to patent US20250289879A1, “THERAPEUTIC MODULATION OF GENES IN MYELOID LINEAGE CELLS AND USES THEREOF IN OPHTHALMOLOGY” (The Children's Medical Center Corporation, priority 2022, published 2025):

Experiments:
SOCS3 = conditions: reported (refs 56, 57, 49); cited from earlier work
OIR mice = test: Oxygen-induced retinopathy (OIR) mouse model, NV and VO areas on retinal flat mounts; type: in vivo
Procedure: OIR was carried out using neonatal mice as described previously (Smith et al., 1994). Briefly, mouse pups with nursing female mice were exposed to 75% oxygen from postnatal day (P) 7 to 12, then returned to room air until to P17 for phenotypical analysis and gene expression at indicated time. For phenotypical analysis, the retinas were collected at P17, dissected, and stained with fluorescent dye conjugated-Griffonia Simplicifolia Isolectin IB4 (Invitrogen) overnight and flat-mounted. The avascular (vasoobliteration, VO) and pathological neovascularization (NV) areas were quantified (Connor et al., 2009) by masked researchers using Image J (National Institutes of Health, imagej.nih.gov/ij/) and Adobe Photoshop (Adobe Systems). The exclusion criteria for the OIR mouse model was used as described previously. Mice with bodyweight less than 5 grams at P17 were excluded from the study (Stahl et al., 2010).
OIR was carried out using neonatal mice as described previously^81. Briefly, mouse pups with nursing female mice were exposed to 75% oxygen from postnatal day (P) 7 to 12, then returned to room air until P17 for phenotypical analysis and gene expression analysis at indicated times. For phenotypical analysis, the retinas were collected at P17, dissected, and stained with fluorescent dye conjugated with Griffonia Simplicifolia Isolectin IB4 (Invitrogen) overnight and flat-mounted. The avascular (vaso-obliteration, VO) and pathological NV areas were quantified^82 by masked researchers using Image J (National Institutes of Health) and fully automated deep learning segmentation method^83. The exclusion criteria for the OIR mouse model were used as previously described^84.
SOCS3 agonist, naringenin (400 mg/kg/day, gavage) 49, and control reagents were administrated to C57BL/6J OIR mice from P12 to P16. SOCS3 peptidomimetic and negative control (NC) peptides were synthesized and purified as described 74. […] The identity and purity of main products were evaluated by LC-MS and purified compounds were lyophilized and stored at −20° C. until use. […]

laser-induced CNV mice = conditions: previously reported (ref 49), vs control treatment; cited from earlier work

SMILES: O=C1C[C@@H](c2ccc(O)cc2)Oc2cc(O)cc(O)c21 [naringenin]
- SOCS3 expression, in words (SOCS3): induces SOCS3 expression
- effect on retinal neovascularization (NV), in words (OIR mice; OIR retinas at P17, vs control treatment): significantly reduced NV
- effect on vaso-obliteration (VO) / blood vessel loss, in words (OIR mice; OIR retinas, vs control treatment): without influencing VO
- reduction of NV at P17 compared to controls (OIR mice; naringenin treatment from P12 to P16, 400 mg/kg/day, C57BL/6J OIR mice): about 50%
- effect on laser-induced CNV, in words (laser-induced CNV mice): significantly suppresses laser-induced CNV
